Measurements from patent US20240294460A1, “DEUTERATED ANALOGS AND DERIVATIVES OF 4-BROMO-2,5-DIMETHOXYPHEN[…] USES THEREOF” (Terran Biosciences Inc., priority 2021, published 2024).
Values joined by “and” are separate entries in the source; they are usually repeats but may differ in a detail not shown here. Equal entries are not always repeated. Structures can show the parent of a compound that is named as a salt.

Assay: Metabolic stability in human liver microsomes
Conditions: substrate 1 μM, NADPH 1 mM, 37° C., 0-45 min; for microsomal CLint at 1 μM / half-life at 1 μM: human, microsomes; for microsomal CLint at 1 μM: pH 7.4, CLint; for half-life at 1 μM: pH 7.4, t1/2, pooled human liver microsomes 0.5 mg/mL
Description: Pooled human liver microsomes were purchased from a commercial supplier. Microsomes were stored at −80° C. prior to use. […] A minus cofactor control incubation was included for each test compound where 0.1 M phosphate buffer pH 7.4 was added instead of NADPH (minus NADPH). Two control compounds (dextromethorphan and verapamil) were included with each test compound. All incubations were performed individually for each test compound. […] The reactions were stopped by transferring incubate into acetonitrile at the appropriate time points, in a 1:3 ratio. The termination plates were then centrifuged at 3,000 rpm for 20 min at 4° C. to precipitate the protein.
From a plot of ln peak area ratio (test compound peak area/internal standard peak area) against time, the gradient of the line was determined.
Elimination rate constant (k)=(−gradient)
where V=Incubation volume (μL)/Microsomal protein (mg).

[1] = pooled human liver microsomes 0.5 mg/mL

Compound | microsomal CLint at 1 μM [1] [µL/min/mg] | half-life at 1 μM [h] | CLint [1] | t1/2 [1]
Cl.[2H]C([2H])([2H])Oc1cc(Br)c(OC)cc1C([2H])([2H])C([2H])([2H])N [2-(4-bromo-5-methoxy-2-(methoxy-d3)phenyl)ethan-1,1,2,2-d4-1-amine hydrochloride] | 11.9 | 1.95 | – | –
Cl.[2H]C([2H])([2H])Oc1cc(C([2H])([2H])C([2H])([2H])N)c(OC)cc1Br [2-(4-bromo-2-methoxy-5-(methoxy-d3)phenyl)ethan-1,1,2,2-d4-1-amine hydrochloride] | 10.5 | 2.2 | – | –
COc1ccc2c(c1)[C@]13CCCC[C@@H]1[C@H](C2)N(C)CC3 [dextromethorphan, reference compound] | 51.2 | 0.452 | 53.0 μL/min/mg protein and 55.0 μL/min/mg protein | 0.437 h and 0.42 h
Cl.[2H]C([2H])(N)Cc1cc(OC([2H])([2H])[2H])c(Br)cc1OC [2-(4-bromo-2-methoxy-5-(methoxy-d3)phenyl)ethan-1,1-d2-1-amine hydrochloride] | 10.9 | 2.12 | – | –
Cl.[2H]C([2H])([2H])Oc1cc(CCN)c(OC)cc1Br [2-(4-Bromo-2-methoxy-5-(methoxy-d3)phenyl)ethan-1-amine hydrochloride] | 9.22 | 2.5 | – | –
COc1cc(CCN)c(OC)cc1Br [2C-B HCl salt, 4-bromo-2,5-dimethoxyphenethylamine, reference compound] | 9.56 | 2.42 | – | –
Cl.[2H]C([2H])([2H])Oc1cc(Br)c(OC)cc1CCN [2-(4-bromo-5-methoxy-2-(methoxy-d3)phenyl)ethan-1-amine hydrochloride] | 18.2 | 1.27 | – | –
Cl.[2H]C([2H])(N)Cc1cc(OC)c(Br)cc1OC([2H])([2H])[2H] [2-(4-bromo-5-methoxy-2-(methoxy-d3)phenyl)ethan-1,1-d2-1-amine hydrochloride] | 12.4 | 1.87 | – | –
